# Where “and” joins values, the source holds several entries; their conditions need not be identical. Identical values can stand only once. Counter-ions that a name gives are not always drawn.
# Experiments:
# [1] = test system: Croton Oil-Induced Mouse Ear Edema; experiment: Croton oil-induced ear edema in mice (Example 1); assay type: in vivo; details: for % Inhibition of Croton Oil-Induced Mouse Ear Edema: topical, 6 h, mean of 10 to 15 animals; for Reduction in ear edema in the croton oil assay (in words): zinterol at 1.6 and 0.2 w/v percent, bitolterol at 1.6 w/v percent; for Topical Anti-Inflammatory Activity, Croton Oil Assay (Edema): summary grade of % inhibition
# Procedure: In the croton oil assay, (which is a standard test, which is fully described in Tonelli et al, Endocrinology, vol. 77, pp. 625-634, 1965, and which is hereby incorporated herein by reference) topical application of four % croton oil in ethanol (v/v) to the ears of mice causes intercellular edema, vasodilation, and polymorphonuclear leucocyte infiltration into the dermis, leading to an increase over normal ear weight of about 70 to 100%. The inflammatory response is nearly maximal by 6 hours. In the croton oil tests, four volume % croton oil in ethanol was applied to the inner aspect of both ears of each test mouse, and various test materials in vehicle systems were applied to the outer aspect of the ears immediately following croton oil application. Control animals were exposed either to croton oil alone or to croton oil followed by the vehicle alone.
# Six hours after exposure to croton oil and/or test material, animals were sacrificed; and punch biopsies of the ears were weighed and compared to the respective vehicle control.
# Compounds were tested in simple solutions, including dimethylacetamide/acetone/ethanol (i.e., DMAC/A/E v/v 40/30/30) and N-methyl pyrrolidone/ethanol (NMP/E v/v 50/50). Comparative controls were chosen based on their known activity in each of the three above-described animal assays and included in all three tests (in Examples 1, 2 and 3) hydrocortisone valerate (HCV) in the croton oil and oxazolone assays, indomethacin (which is a potent aspirin-like nonsteroidal anti-inflammatory agent) in the UVB test, and salbutamol (a β2 agonist, discussed above in the Background of the Invention).
# (§1) The percent inhibition of induced mouse ear edema (or erythema) for each of the three models (in Examples 1, 2 and 3) is calculated: [formula]
# [2] = test system: croton oil-induced ear edema in mice; experiment: Croton oil-induced ear edema in mice, compounds IV and V vs zinterol (Example 4); assay type: in vivo, Swiss albino mice; details: for % Reduction of Ear Edema Weight as Compared to Control Ears, Mean ± S.D.: mean of studies; for % Reduction of Ear Edema Weight as Compared to Control Ears / Anti-inflammatory activity in croton oil-induced ear edema (in words): topical; for % Reduction of Ear Edema Weight as Compared to Control Ears: 6 h, single study; for Anti-inflammatory activity in croton oil-induced ear edema (in words): NMP/ETOH
# Procedure: In these tests, the anti-inflammatory effect of these three β2 agonists when applied topically to the croton oil-induced ear edema in mice was investigated. In these tests, 50 μl of 4 weight percent croton oil in ethanol was applied to the inner aspects of the right and the left ears of Swiss albino mice, followed immediately by 25 μof suspensions of 0.02, 0.2, and 0.8 weight percent of compound IV and compound V in N-methylpyrrolidone/Ethyl alcohol (i.e., NMP/ETOH) applied to the outer aspect of each ear. Croton oil treated and nontreated control groups were included. These control groups are included in the data as described hereinbefore.
# Six hours later, the animals were sacrificed with CO2 gas, and a 5/16 inch punch biopsy of each ear was taken and weighed immediately.
# The anti-inflammatory effects for the test agents were assessed by a comparison of the biopsy weights of the test and control groups.
# [3] = test system: Oxazolone-Induced Edema in Mouse Ear; experiment: Oxazolone-induced ear edema in mice (Example 2); assay type: in vivo; details: for % Inhibition of Oxazolone-Induced Edema in Mouse Ear: topical, mean of 10 to 15 animals; for Topical Anti-Inflammatory Activity, Oxazolone Assay (Edema): summary grade of % inhibition
# Source text: Oxazolone-induced contact sensitization in mice is characterized by edema and cellular infiltration, primarily of the monocyte type, with close to 100% increase in the mouse ear weight.
# [4] = test system: UVB-Induced Erythema in Guinea Pig; experiment: UVB-induced erythema in guinea pigs (Example 3); assay type: in vivo; details: for Topical Anti-Inflammatory Activity, UV-B Assay (Erythema): summary grade of % inhibition; for Activity in the UVB assay (in words): zinterol 3 and 1.6 weight percent, indomethacin 1 weight percent
# Procedure: as §1
# In the UVB test, cutaneous erythema is induced in guinea pigs.This test is a standard test widely used for testing anti-inflammatory agents and is fully described in K. F. Swingle, "Evaluation for Anti-Inflammatory Activity", in Anti-Inflammatory Agents, vol. 2, ed. by Scherrer and Whitehouse, pp. 34-122, London: Academic Press, 1974, hereby incorporated herein by reference. In the UVB model, the test material was applied topically to the irradiated sites immediately following exposure to UVB. Erythema was scored on a 0 to 4 scale, 3 and 6 hours after irradiation.
# [5] = Solubility of active ingredient in vehicles; assay type: physicochemical
# [6] = 1.6 w/v %, in NMP/ETOH (50/50), salbutamol in Ethanol/H2O (50/50)
# [7] = 0.02 % weight/volume in NMP/ETOH
# [8] = 0.2 % weight/volume in NMP/ETOH
# [9] = 0.8 % weight/volume in NMP/ETOH
# [10] = 0.2 w/v %, in DMAC/acetone/ethanol (40:30:30)
# [11] = 1.6 w/v %, in DMAC/acetone/ethanol (40:30:30)
# [12] = 3 w/v %, in N-methylpyrrolidone:ethanol (1:1)
# [13] = 3 w/v %, N-methyl 2-pyrrolidone/ethanol (50/50), 3 h, salbutamol in Ethanol/H2O or NMP/H2O
# [14] = 3 w/v %, N-methyl 2-pyrrolidone/ethanol (50/50), 6 h, salbutamol in Ethanol/H2O or NMP/H2O
smiles,measurement,setting,value
"Cc1ccc(C(=O)Oc2ccc(C(O)CNC(C)(C)C)cc2OC(=O)c2ccc(C)cc2)cc1 (centres unmarked) [Bitolterol, bitolterol]",% Inhibition of Croton Oil-Induced Mouse Ear Edema,"[1]; 0.2 w/v %, in NMP/ETOH (50/50)",42% and 25% and 34%
same,% Inhibition of Croton Oil-Induced Mouse Ear Edema,[1]; [6],61%
same,Reduction in ear edema in the croton oil assay (in words),[1],good to moderate reductions in ear edema
CC(Cc1c[nH]c2ccccc12)NCC(O)c1ccc(O)c(NS(C)(=O)=O)c1 (centres unmarked) [Compound IV],"% Reduction of Ear Edema Weight as Compared to Control Ears, Mean ± S.D.",[2]; [7],18.1 ± 10.6%
same,% Reduction of Ear Edema Weight as Compared to Control Ears,[2]; [8],32.9% and 48.7% and 49.4%
same,"% Reduction of Ear Edema Weight as Compared to Control Ears, Mean ± S.D.",[2]; [8],43.7 ± 9.3%
same,% Reduction of Ear Edema Weight as Compared to Control Ears,[2]; [9],61.6% and 53.4%
same,"% Reduction of Ear Edema Weight as Compared to Control Ears, Mean ± S.D.",[2]; [9],57.5 ± 5.8%
same,Anti-inflammatory activity in croton oil-induced ear edema (in words),[2],comparable to that of zinterol
CC(C)(Cc1c[nH]c2ccccc12)NCC(O)c1ccc(O)c(NS(C)(=O)=O)c1 (centres unmarked) [Compound V],% Reduction of Ear Edema Weight as Compared to Control Ears,[2]; [7],29.9%
same,% Reduction of Ear Edema Weight as Compared to Control Ears,[2]; [8],53.5%
same,% Reduction of Ear Edema Weight as Compared to Control Ears,[2]; [9],69.9%
same,Anti-inflammatory activity in croton oil-induced ear edema (in words),[2],comparable to that of zinterol
"CCCCC(=O)O[C@]1(C(=O)CO)CC[C@H]2[C@@H]3CCC4=CC(=O)CC[C@]4(C)[C@H]3[C@@H](O)C[C@@]21C [HCV, hydrocortisone valerate]",% Inhibition of Croton Oil-Induced Mouse Ear Edema,"[1]; 0.2 w/v %, in DMAC/Acetone/ETOH, salbutamol in Ethanol/H2O (50/50), minus = potentiation",25% and 38% and 34%
same,% Inhibition of Croton Oil-Induced Mouse Ear Edema,"[1]; 0.2 w/v %, in NMP/ETOH (50/50)",71% and 62% and 64% and 67% and 73%
same,% Inhibition of Croton Oil-Induced Mouse Ear Edema,[1]; [6],70% and 71%
same,"Topical Anti-Inflammatory Activity, Croton Oil Assay (Edema)",[1],+++ (+++ = high (60%))
same,% Inhibition of Oxazolone-Induced Edema in Mouse Ear,[3]; [10],16%
same,% Inhibition of Oxazolone-Induced Edema in Mouse Ear,[3]; [11],36% and 27%
same,% Inhibition of Oxazolone-Induced Edema in Mouse Ear,[3]; [12],39%
same,"Topical Anti-Inflammatory Activity, Oxazolone Assay (Edema)",[3],+ (+ = Slight (30-44))
"COc1ccc2c(c1)c(CC(=O)O)c(C)n2C(=O)c1ccc(Cl)cc1 [Indomethacin, indomethacin]","Topical Anti-Inflammatory Activity, Croton Oil Assay (Edema)",[1],+ (+ = Slight (30-44))
same,"Topical Anti-Inflammatory Activity, Oxazolone Assay (Edema)",[3],+ (+ = Slight (30-44))
same,% Change in UVB-Induced Erythema in Guinea Pig,"[4]; 1%, DMAC/acetone/ethanol (40/30/30), 3 h",72% and 54% and 82%
same,% Change in UVB-Induced Erythema in Guinea Pig,"[4]; 1%, DMAC/acetone/ethanol (40/30/30), 6 h",43% and 48% and 54%
same,% Change in UVB-Induced Erythema in Guinea Pig,"[4]; 1%, N-methyl 2-pyrrolidone/ethanol (50/50), 3 h",100% and 93% and 91%
same,% Change in UVB-Induced Erythema in Guinea Pig,"[4]; 1%, N-methyl 2-pyrrolidone/ethanol (50/50), 6 h",74% and 85% and 87%
same,"Topical Anti-Inflammatory Activity, UV-B Assay (Erythema)",[4],+++ (+++ = high (60%))
same,Activity in the UVB assay (in words),[4],good to very good activity
"CC(C)(C)NCC(O)c1ccc(O)c(CO)c1 (centres unmarked) [Salbutamol, salbutamol]","Topical Anti-Inflammatory Activity, Croton Oil Assay (Edema)",[1],+ (+ = Slight (30-44))
same,% Inhibition of Oxazolone-Induced Edema in Mouse Ear,[3]; [10],-1% and -9%
same,% Inhibition of Oxazolone-Induced Edema in Mouse Ear,[3]; [11],2% and 0%
same,% Inhibition of Oxazolone-Induced Edema in Mouse Ear,"[3]; 1.6 w/v %, in N-methylpyrrolidone:ethanol (1:1)",21% and 28%
same,% Inhibition of Oxazolone-Induced Edema in Mouse Ear,[3]; [12],31%
same,"Topical Anti-Inflammatory Activity, Oxazolone Assay (Edema)",[3],+ (+ = Slight (30-44))
same,% Change in UVB-Induced Erythema in Guinea Pig,"[4]; 1.6 w/v %, DMAC/acetone/ethanol (40/30/30), 3 h, salbutamol in Ethanol/H2O or NMP/H2O",9%
same,% Change in UVB-Induced Erythema in Guinea Pig,"[4]; 1.6 w/v %, DMAC/acetone/ethanol (40/30/30), 6 h, salbutamol in Ethanol/H2O or NMP/H2O",+4%
same,% Change in UVB-Induced Erythema in Guinea Pig,[4]; [13],42% and 45%
same,% Change in UVB-Induced Erythema in Guinea Pig,[4]; [14],32% and 25%
same,"Topical Anti-Inflammatory Activity, UV-B Assay (Erythema)",[4],+ (+ = Slight (30-44))
"CC(C)(Cc1ccccc1)NCC(O)c1ccc(O)c(NS(C)(=O)=O)c1 (centres unmarked) [Zinterol, 2-hydroxy-5'-[1-hydroxy-2-(2-methyl-1-phenyl-2-propylamino)ethyl]methanesulfonanilide]",Topical cutaneous anti-inflammatory activity in the croton oil assay (in words),[1]; 1.6 w/v %,high topical cutaneous anti-inflammatory activity
same,% Inhibition of Croton Oil-Induced Mouse Ear Edema,"[1]; 1.6 w/v %, in DMAC/Acetone/ETOH, salbutamol in Ethanol/H2O (50/50)",69% and 50% and 81% and 66% and 63% and 48% and 45%
same,% Inhibition of Croton Oil-Induced Mouse Ear Edema,[1]; [6],69% and 63% and 70% and 48% and 73%
same,"Topical Anti-Inflammatory Activity, Croton Oil Assay (Edema)",[1],+++ (+++ = high (60%))
same,Reduction in ear edema in the croton oil assay (in words),[1],good to moderate reductions in ear edema
same,Reduction in ear edema in the oxazolone assay (in words),[3]; 3 and 1.6 weight percent,slight reduction in ear edema with no dose-related effect
same,% Inhibition of Oxazolone-Induced Edema in Mouse Ear,[3]; [12],39%
same,"Topical Anti-Inflammatory Activity, Oxazolone Assay (Edema)",[3],+ (+ = Slight (30-44))
same,% Change in UVB-Induced Erythema in Guinea Pig,"[4]; 1.6 w/v %, N-methyl 2-pyrrolidone/ethanol (50/50), 3 h",9%
same,% Change in UVB-Induced Erythema in Guinea Pig,"[4]; 1.6 w/v %, N-methyl 2-pyrrolidone/ethanol (50/50), 6 h",26%
same,% Change in UVB-Induced Erythema in Guinea Pig,[4]; [13],48% and 75%
same,% Change in UVB-Induced Erythema in Guinea Pig,[4]; [14],18% and 25%
same,"Topical Anti-Inflammatory Activity, UV-B Assay (Erythema)",[4],+ (+ = Slight (30-44))
same,Activity in the UVB assay (in words),[4],slight to moderate activity with no consistent dose effect
same,% Reduction of Ear Edema Weight as Compared to Control Ears,[2]; [7],14.2% and 23.6%
same,"% Reduction of Ear Edema Weight as Compared to Control Ears, Mean ± S.D.",[2]; [7],18.9 ± 6.6%
same,% Reduction of Ear Edema Weight as Compared to Control Ears,[2]; [8],39.5% and 66.2% and 46.6%
same,"% Reduction of Ear Edema Weight as Compared to Control Ears, Mean ± S.D.",[2]; [8],50.8 ± 13.8%
same,% Reduction of Ear Edema Weight as Compared to Control Ears,[2]; [9],68.2% and 56.6%
same,"% Reduction of Ear Edema Weight as Compared to Control Ears, Mean ± S.D.",[2]; [9],62.4 ± 8.2%
CC(C)(Cc1ccccc1)NCC(O)c1ccc(O)c(NS(C)(=O)=O)c1 (centres unmarked) [zinterol hydrochloride],solubility,"[5]; organic solvent or mixture, cream vehicle, read-out: Amount that will dissolve in creams",≤ 7000 µg/mL
same,Solubility (in words),[5]; water,water soluble
